Measurements: patent US4927817A, “Preventive and therapeutic agent against liver disorder” (Zeria Pharmaceutical Co., Ltd., priority 1986, dated 1990)
“Also recorded” adds a separate entry of the source.

Legend:
[1] = test system: liver disorder caused by carbon tetrachloride; assay: prevention of experimental liver disorder in rat caused by carbon tetrachloride: serum GOT and GPT; format: in vivo, male Wistar rats; details: for GOT (serum) / GPT (serum): CCl4 0.4 ml/kg oral 1 h after last dose, blood at 24 h; for GOT (serum): CCl4 + CMC control 2115.9 ± 260.2; for GPT (serum): CCl4 + CMC control 2243.8 ± 333.0
Procedure: (§1) Carnosine zinc salt was suspended in 0.5% sodium carboxymethyl cellulose (CMC) solution to prepare 60 mg/ml and 20 mg/ml suspensions. This was given to rats orally every day for 8 days at the rate of 0.5 ml/100 g so that the dosage was to be 300 mg/kg and 100 mg/kg, respectively. To the control group, the same volume of 0.5% CMC was given.
(§2) To prepare the model animals with liver disorder caused by carbon tetrachloride, carbon tetrachloride mixed in olive oil to have a 10% (V/V) mixture was given orally at the rate of 4 ml/kg (0.4 ml/kg as carbon tetrachloride) one hour after the final administration of carnosine zinc salt or 0.5% CMC. The animals were anesthetized by intraperitoneal injection of pentobarbital at 24 hours after carbon tetrachloride was given, and blood was collected from carotid arteries. The blood was centrifuged at 3000 rpm for 15 minutes to fractionate serum, and GOT and GPT were determined (Reitman Frankel and Momose modification).
For the experiment, male Wistar rats were used. With 10 rats in each group, they were divided into three groups: the group given with carbon tetrachloride (CCl4) and 0.5% CMC only (CCl4 +CMC), the group given with carbon tetrachloride and 300 mg/kg or 100 mg/kg of carnosine zinc salt (CCl4 +carnosine zinc salt) and the group given with 0.5% CMC only (CMC).

[2] = test system: hepatic cells; assay: histopathological examination of isolated liver (H-E staining) in rats given carbon tetrachloride; format: in vivo, male Wistar rats
Procedure: as §1, §2
From the isolated liver, the paraffined sections were prepared, stained by H-E staining and were examined by histopathological examination.
For the experiment, male Wistar rats were used. […]

[3] = acute toxicity test, oral; format: in vivo, female and male Wistar rats
Text: In the acute toxicity test, female and male Wistar rats, each with body weight 150-200 g, were divided into the groups with 10 rats each, and 10 g/kg each of carnosine zinc salt was given orally.

[4] = test system: hepatitis experimentally induced by carbon tetrachloride; assay: carnosine zinc salt given after liver disorder had actually occurred (carbon tetrachloride hepatitis); format: in vivo, model animals; details: CCl4 hepatitis
[5] = 100 mg/kg oral daily for 8 days
[6] = 300 mg/kg oral daily for 8 days

NCCC(=O)[N-][C@@H](Cc1c[nH]cn1)C(=O)[O-].[Zn+2] [carnosine zinc salt, L-carnosine zinc salt]
GOT (serum) [1, 5]: 2167.7 ± 777.5 KU
GPT (serum) [1, 5]: 1917.7 ± 748.6 KU
GPT and GOT in blood, statistical significance ([1]; 300 mg/kg administration group, risk rate of 1%): significantly decreased at risk rate of 1%
GOT (serum) [1, 6]: 629.7 ± 121.2 KU
GPT (serum) [1, 6]: 427.7 ± 69.4 KU
increase of hepatic enzymes in blood ([1]; given before liver disorder occurs, CCl4 hepatitis): effectively prevented
increase of GPT and GOT in blood ([1]; oral, depending upon the dosage, CCl4 rats): significant decline in the increase of GPT and GOT in blood; also recorded: suppresses increase of GPT and GOT in blood, depending upon the dosage
prevention of experimental liver disorder caused by carbon tetrachloride ([1]; oral, rat): effect of carnosine zinc salt to prevent the experimental liver disorder caused by carbon tetrachloride
necrosis of hepatic cells and fat formation ([2]; group given carnosine zinc salt, CCl4 rats): suppression of necrosis of hepatic cells and fat formation
degree of necrosis of hepatic cells ([2]; improvement of liver disorder): reduction of the degree of necrosis of hepatic cells
death in acute toxicity test ([3]; 10 g/kg oral, observation for 7 days, female and male rats): no case of death
acute toxicity ([3]; oral): very weak toxicity; also recorded: extremely weak
preventive effect when given after liver disorder had occurred [4]: the same preventive effect was obtained
